System: HEK293 Tau^RD-P301S-CFP/YFP expressing biosensor cells
Assay: FRET cellular transfection assay with protein constructs and tau seeds
Format: cell-based
Conditions: for rise of induced tau aggregation in transfection-positive cells: compared to non-expressing and non-transfected cells, high seeding concentrations; for susceptibility to tau seeding at low seed concentrations: concentration-dependent quantification; for number of inclusions formed per cell: higher concentrations of tau seeds, compared to the controls
Protocol: HEK293 Tau^RD-P301S-CFP/YFP expressing biosensor cells[109] were purchased from ATCC and cultured in DMEM medium, supplemented with 10% FBS at 37 °C, and a 5% CO2 atmosphere. Gene constructs (Supplementary Methods) were generated and onboarded to a pTwist CMV expression vector by coupling double-tagged (N-terminal HA and C-terminal FLAG recognition sites) genes of interest to an mKO2 fluorescence reporter, separated by an IRES site to enable independent co-expression (Twist Biosciences). Due to restrictions imposed by the construct synthesis, for proteins longer than 500 residues we designed shorter domain-constructs containing the homologous sequences (Supplementary Table 2). Biosensor cells were plated in poly-L-lysine coated 96-well plates (PerkinElmer) at a density of 20000 cells/well. DNA transfection (100 ng) and tau seeds transfection was performed 6 h and 48 h later, respectively, using Lipofectamine 3000 according to the manufacturer guidelines. For seed transfections specifically, a volume of 4.8 μL of the seed sample, mixed with 0.2 μL of Reagent 3000, was added to a mixture of 0.3 μL of Lipofectamine 3000 with 4.7 μL of Opti-MEM medium. Cells were fixed with 4% formaldehyde 24 h after seeding. Fixed cells were stained with DAPI (Thermofisher, D1306) following the manufacturer protocol. For immunofluorescence staining, primary antibody staining at 1:1000 dilution was performed in 1% BSA with an HA-tag (C29F4) Rabbit mAb (Cell Signalling, #3724), followed by secondary staining with an Alexa Fluor 647 goat anti-rabbit antibody (ThermoFisher, A-21245) at 1:1000 dilution in 1% BSA for 1 h. Three individual plate preparations were performed for each construct gradient as independent experiments (n = 3). High-content screening was performed at the VIB Screening Core/C-BIOS, using an Opera Phenix HCS (PerkinElmer) equipped with proper filter channels to track tau aggregation through FRET (Ex:405, Em:550), construct colocalization through HA staining (Ex:647, Em:667) and DAPI staining (Ex:405 Em:430). Image storage and segmentation analysis was performed using the Columbus Plus digital platform (PerkinElmer). Quantification of colocalization was performed using Coloc2 in ImageJ.

Molecule: DOCK3: dedicator of cytokinesis, transiently expressed construct
- rise of induced tau aggregation in transfection-positive cells: 30%

Molecule: IDE: insulin degrading enzyme, transiently expressed construct with homology to PHF6
- rise of induced tau aggregation in transfection-positive cells: 30%
- susceptibility to tau seeding at low seed concentrations: vulnerable to tau seeding even at picomolar concentrations
- number of inclusions formed per cell: doubling or higher effect

B1: TRA2B: Transformer-2 homolog beta, transiently expressed construct (protein, UniProt P62995 2-288, looked up)
Transformer-2 protein homolog …: SDSGEQNYGERESRSASRSGSAHGSGKSARHTPARSRSKEDSRRSRSKSRSRSESRSRSRRSSRRHYTRSRSRSRSHRRSRSRSYSRDYRRRHSHSHSPMSTRRRHVGNRANPDPNCCLGVFGLSLYTTERDLREVFSKYGPIADVSIVYDQQSRRSRGFAFVYFENVDDAKEAKERANGMELDGRRIRVDFSITKRPHTPTPGIYMGRPTYGSSRRRDYYDRGYDRGYDDRDYYSRSYRGGGGGGGGWRAAQDRDQIYRRRSPSPYYSRGGYRSRSRSRSYSPRRY
- rise of induced tau aggregation in transfection-positive cells: 30%
- susceptibility to tau seeding at low seed concentrations: vulnerable to tau seeding even at picomolar concentrations
- number of inclusions formed per cell: doubling or higher effect

B2: SNTG1: Synaptotagmin-1 (SNTG1) as worded, transiently expressed construct (protein, UniProt Q9NSN8 1-517, looked up)
Gamma-1-syntrophin: MDFRTACEETKTGICLLQDGNQEPFKVRLHLAKDILMIQEQDVICVSGEPFYSGERTVTIRRQTVGGFGLSIKGGAEHNIPVVVSKISKEQRAELSGLLFIGDAILQINGINVRKCRHEEVVQVLRNAGEEVTLTVSFLKRAPAFLKLPLNEDCACAPSDQSSGTSSPLCDSGLHLNYHPNNTDTLSCSSWPTSPGLRWEKRWCDLRLIPLLHSRFSQYVPGTDLSRQNAFQVIAVDGVCTGIIQCLSAEDCVDWLQAIATNISNLTKHNIKKINRNFPVNQQIVYMGWCEAREQDPLQDRVYSPTFLALRGSCLYKFLAPPVTTWDWTRAEKTFSVYEIMCKILKDSDLLDRRKQCFTVQSESGEDLYFSVELESDLAQWERAFQTATFLEVERIQCKTYACVLESHLMGLTIDFSTGFICFDAATKAVLWRYKFSQLKGSSDDGKSKIKFLFQNPDTKQIEAKELEFSNLFAVLHCIHSFFAAKVACLDPLFLGNQATASTAASSATTSKAKYTT
- number of inclusions formed per cell: doubling or higher effect

From PMC8924238, “Mapping the sequence specificity of heterotypic amyloid interactions enables the identification of aggregation modifiers” (Nature Communications, 2022)
